We go through 5 molecules from patent KR20180032031A, “이소디메틸웨델로락톤을 포함하는 화장료 조성물” (주식회사 엘지생활건강, priority 2016, dated 2018).

Assay [1] has as its system B-16 mouse melanoma cells [쥐의 멜라노마 세포(B-16 mouse melanoma cell)]. The assay is described as follows: Melanin total amount reduction in B-16 mouse melanoma cells (whitening effect). It counts as cell-based. Particulars: 3 days, n = 3; for melanin production amount: absorbance at 400 nm per 1×10^6 cells.
The next assay has as its target T1, elastase [엘라스타제] (Homo sapiens, UniProt P08246).
T1 construct: 엘라스타제(elastase)는 사람의 백혈구 세포로부터 유래한 것을 사용하였고; from tissue; host or cells: human leukocytes
T1 sequence (P08246 30-267): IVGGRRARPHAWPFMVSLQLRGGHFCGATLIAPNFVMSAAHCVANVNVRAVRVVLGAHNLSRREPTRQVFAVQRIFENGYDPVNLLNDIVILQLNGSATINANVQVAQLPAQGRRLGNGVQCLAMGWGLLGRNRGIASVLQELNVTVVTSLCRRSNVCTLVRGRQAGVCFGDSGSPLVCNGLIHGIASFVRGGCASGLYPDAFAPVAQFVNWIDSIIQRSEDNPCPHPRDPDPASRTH
The assay is described as follows: Elastase activity inhibition. The class given is biochemical. Particulars: pH 7.5, room temperature, n = 3; for enzyme activity: slope of absorbance at 405 nm.

Assay [2] has as its system human-derived fibroblasts, type I collagen [인간 유래 섬유아세포, 제1형 콜라겐]. The assay is described as follows: Type I collagen synthesis promotion in human-derived fibroblasts (PICP EIA kit). It counts as cell-based. Particulars: 48 h, n = 4.
Assay [3] concerns RAW264.7 cells, nitric oxide (NO) [RAW264.7 세포, 일산화질소(NO)]. The assay is described as follows: NO production inhibition in LPS-stimulated RAW264.7 cells (GRIESS method). It counts as cell-based. Particulars: Mus musculus, LPS 1 ㎍, 24 h, read-out: NO production inhibition rate.
Assay [4] can be described thus: Anti-glycation effect (L-arginine and glucose). Particulars: 70 ℃, 4 h, 420 nm.
The subject of a further assay is collagenase [콜라게네이즈]. The assay is described as follows: Collagenase activity inhibition. Particulars: pH 7.5, room temperature, n = 3; for enzyme activity: maximum slope of absorbance at 345 nm; for inhibition rate: collagenase. It counts as biochemical, rat/mouse.
Assay [5] is described as follows: Free radical scavenging (DPPH), antioxidant effect. Particulars: 37 ℃, 30 min, 520 nm, n = 3.

In turn, `OC[C@H]1O[C@@H](Oc2ccc(O)cc2)[C@H](O)[C@@H](O)[C@@H]1O` [알부틴, reference compound] displayed a melanin production amount in assay [1] (100 ppm) of 0.228 abs. For the same molecule, in assay [1] (Mus musculus, 72 h, total melanin vs negative control, 100 ppm, read-out: inhibition rate), the inhibition at 100 ppm was found to be 30.9%.
In the case of `O=c1oc2c(O)cc(O)cc2c2oc3cc(O)c(O)cc3c12` [화학식1의 화합물, 2,4,8,9-tetrahydroxy-[1]benzofuro[3,2-c]chromen-6-one], the enzyme activity is reported as 3.7 on elastase [엘라스타제] (10 ppm), 3.2 at elastase [엘라스타제] (20 ppm), -2.34 in the assay on collagenase [콜라게네이즈] (100 ppm) and -2.61 with collagenase [콜라게네이즈] (200 ppm). For the same molecule, the inhibition at 10 ppm on elastase [엘라스타제] (elastase, 10 ppm, read-out: inhibition rate) amounted to 64.4%; in assay [1] (Mus musculus, 72 h, total melanin vs negative control, 10 ppm, read-out: inhibition rate), 29.7%; in assay [3] it was 43.9%. For the same molecule, the inhibition at 20 ppm on elastase [엘라스타제] (elastase, 20 ppm, read-out: inhibition rate) is 69.1%. The “type I collagen production amount” value in assay [2] (1 ppm) amounted to 180.3 ng/mL; in assay [2] (10 ppm), 260.1 ng/mL. Also, the activation at 1 ppm in assay [2] (Homo sapiens, Fibroblast, collagen production vs negative control, 1 ppm, read-out: increase rate) was determined as 20%. The activation at 10 ppm in assay [2] (Homo sapiens, Fibroblast, collagen production vs negative control, 10 ppm, read-out: increase rate) came to 73.2%. In addition, the values for the melanin production amount in assay [1] (1 ppm) and in assay [1] (10 ppm) were 0.251 abs and 0.232 abs, respectively. Further, the inhibition at 1 ppm in assay [1] (Mus musculus, 72 h, total melanin vs negative control, 1 ppm, read-out: inhibition rate) amounted to 23.9%; in assay [3] (1 ppm), 36.2%. For the same molecule, the inhibition at 100 ppm in assay [3] (100 ppm) turned out to be 55.2%. The inhibition rate in assay [4] (25 ppm) turned out to be 44.32%; in assay [4] (50 ppm), 65.20%; in the assay on collagenase [콜라게네이즈] (100 ppm) it was 24.57%; in the assay with collagenase [콜라게네이즈] (200 ppm), 32.37%.
For `CNC(=N)NCCC[C@H](N)C(=O)O` [L-NMMA, L-NG-Monomethylarginine, reference compound], the inhibition at 10 ppm in assay [3] was 41%.
Turning to `N=C(N)NN` [Aminoguanidine, reference compound], in assay [4] (55 ppm), the inhibition rate is 54.89%.
As for `O=C1O[C@H]([C@@H](O)CO)C(O)=C1O` [비타민 C, L-Ascorbic acid, reference compound], in assay [2] (50 ppm), the “type I collagen production amount” value was 246.8 ng/mL. Moreover, the activation at 50 ppm in assay [2] (Homo sapiens, Fibroblast, collagen production vs negative control, 50 ppm, read-out: increase rate) is 64.3%. Besides, in assay [5], the “free radical scavenging rate (IC50)” value is given as 7.5.
